Experimental data published in US20260191858A1, “COMBINATION THERAPIES” (Kallyope, Inc., priority 2022, published 2026).

Biological target: T1, human GPR119 (hGPR119) (Homo sapiens, UniProt Q8TDV5)
T1 construct: expressed in transfected cells; host or cells: CHO-K1
T1 sequence (Q8TDV5 1-335): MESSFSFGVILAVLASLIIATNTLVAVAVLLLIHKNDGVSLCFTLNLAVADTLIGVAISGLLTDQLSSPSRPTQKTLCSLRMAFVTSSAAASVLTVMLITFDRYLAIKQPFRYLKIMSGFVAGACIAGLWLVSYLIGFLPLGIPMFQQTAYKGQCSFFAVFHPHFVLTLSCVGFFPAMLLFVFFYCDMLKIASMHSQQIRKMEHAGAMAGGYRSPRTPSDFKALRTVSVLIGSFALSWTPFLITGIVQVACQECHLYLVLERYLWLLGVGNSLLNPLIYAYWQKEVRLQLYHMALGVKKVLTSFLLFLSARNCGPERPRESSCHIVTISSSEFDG
Test: cAMP accumulation assay in CHO-K1 cells stably expressing hGPR119
Format: cell-based
Details: cAMP HTRF, 60 minutes
Experimental: CHO-K1 cells stably expressing human GPR119 (hGPR119) were prepared by transfection of a GPR119-carrying plasmid using Lipofectamine 2000 (following manufacturer instructions). A stable cell line was established using the limiting dilution method with geneticine selection. Assay-ready frozen (ARF) cells were prepared and used throughout the study.
The assay was performed in a 384-well plate format using the CAMP Gs dynamic assay kit from Cisbio. ARF cells expressing hGPR119 were thawed, washed and then resuspended in CAMP stimulation buffer at a cell density of 1.1×10^6 cells/mL. Cells were plated at a density of ~10,000 cells/well (9 μL/well). Dose response curves for the tested compounds were prepared in a cAMP stimulation buffer, containing 0.1% Tween 80 at 4 fold the final concentration. The compounds were then transferred to the cell plates using BRAVO (3 μL/well) and the plates were incubated for 60 minutes at 37° C./5% CO2. Detection buffer (10 μL, prepared as described in the CAMP Gs dynamic kit) were added to each well, and the plates were incubated at ambient temperature for 1 hr.
RT-FRET was measured using a ClarioSTAR plate reader, calculating the ratio between emissions at 665 nm and 620 nm (HTRF ratio). The HTRF ratio for positive (Max) and negative (Min) controls were used to normalize HTRF data and generate values for % activity. EC50 and Max activity values were determined using a standard 4-parameter fit.

Structure (SMILES)	EC50 [nM]
O=C(NCCNCCC1CN(C(=O)Cc2ccc(OCCCC3CCN(c4ncc(Cl)cn4)CC3)cc2F)C1)NC(CO)(CO)CO [Compound A30, 1-(2-((2-(1-(2-(4-(3-(1-(5-chloropyrimidin-2-yl)piperidin-4-yl)propoxy)-2-fluorophenyl)acetyl)azetidin-3-yl)ethyl)amino)ethyl)-3-(1,3-dihydroxy-2-(hydroxymethyl)propan-2-yl)urea]	100 to 1000
CCc1cnc(N2CCC(CCCOc3cc(F)c(CC(=O)N4CC(CNCCNC(=O)NC(CO)(CO)CO)C4)c(F)c3)CC2)nc1 [Compound A38, 1-(1,3-dihydroxy-2-(hydroxymethyl)propan-2-yl)-3-(2-(((1-(2-(4-(3-(1-(5-ethylpyrimidin-2-yl)piperidin-4-yl)propoxy)-2,6-difluorophenyl)acetyl)azetidin-3-yl)methyl)amino)ethyl)urea]	≤ 100
O=C(Cc1ccc(OCCCC2CCN(c3ncc(Cl)cn3)CC2)cc1F)N1CC(CNCC(CO)CO)C1 [Compound A17]	≤ 100
CCCc1cnc(N2CCC(CCCOc3ccc(CC(=O)N4CC(CNC(CO)(CO)CO)C4)c(F)c3)CC2)nc1 [Compound A42, 1-(3-(((1,3-dihydroxy-2-(hydroxymethyl)propan-2-yl)amino)methyl)azetidin-1-yl)-2-(2-fluoro-4-(3-(1-(5-propylpyrimidin-2-yl)piperidin-4-yl)propoxy)phenyl)ethan-1-one]	≤ 100
O=C(Cc1ccc(OCCCC2CCN(c3ncc(Cl)cn3)CC2)cc1F)N1CC(CN2C[C@@H](O)[C@H](O)C2)C1 (stereo in doubt) [Compound A19, 2-[4-[3-[1-(5-chloropyrimidin-2-yl)-4-piperidyl]propoxy]-2-fluoro-phenyl]-1-[3-[[rac-(3R,4R)-3,4-dihydroxypyrrolidin-1-yl]methyl]azetidin-1-yl]ethanone]	≤ 100
CCc1cnc(N2CCC(CCCOc3ccc(CC(=O)N4CC(CNCC(O)(CO)CO)C4)c(F)c3)CC2)nc1 [Compound A33, 1-(3-(((2,3-dihydroxy-2-(hydroxymethyl)propyl)amino)methyl)azetidin-1-yl)-2-(4-(3-(1-(5-ethylpyrimidin-2-yl)piperidin-4-yl)propoxy)-2-fluorophenyl)ethan-1-one]	≤ 100
O=C(Cc1ccc(OCCCC2CCN(c3ncc(Cl)cn3)CC2)cc1F)N1CC(CCNCC(O)(CO)CO)C1 [Compound A28, 2-(4-(3-(1-(5-chloropyrimidin-2-yl)piperidin-4-yl)propoxy)-2-fluorophenyl)-1-(3-(2-((2,3-dihydroxy-2-(hydroxymethyl)propyl)amino)ethyl)azetidin-1-yl)ethan-1-one]	100 to 1000
COCc1cnc(N2CCC(CCCOc3ccc(CC(=O)N4CC(C(=O)NC[C@H](O)[C@@H](O)[C@H](O)[C@H](O)CO)C4)c(F)c3)CC2)nc1 (racemic) [Compound A12, 1-[2-[2-fluoro-4-[3-[1-[5-(methoxymethyl)pyrimidin-2-yl]-4-piperidyl]propoxy]phenyl]acetyl]-N-[rac-(2S,3R,4R,5R)-2,3,4,5,6-pentahydroxyhexyl]azetidine-3-carboxamide]	100 to 1000
O=C(Cc1ccc(OCCCC2CCN(c3ncc(Cl)cn3)CC2)cc1F)N1CC(CN2C[C@@H](O)[C@@H](O)[C@@H](O)C2)C1 [Compound A22, 2-[4-[3-[1-(5-chloropyrimidin-2-yl)-4-piperidyl]propoxy]-2-fluoro-phenyl]-1-[3-[[rac-(3R,5S)-3,4,5-trihydroxy-1-piperidyl]methyl]azetidin-1-yl]ethanone]	≤ 100
O=C(Cc1ccc(OCCCC2CCN(c3ncc(Cl)cn3)CC2)cc1F)N1CC(CN2C[C@H](O)[C@@H](O)C2)C1 (stereo in doubt) [Compound A18, 2-[4-[3-[1-(5-chloropyrimidin-2-yl)-4-piperidyl]propoxy]-2-fluoro-phenyl]-1-[3-[[rac-(3S,4S)-3,4-dihydroxypyrrolidin-1-yl]methyl]azetidin-1-yl]ethanone]	≤ 100
O=C(CC1CN(C(=O)Cc2ccc(OCCCC3CCN(c4ncc(Cl)cn4)CC3)cc2F)C1)NCC(O)(CO)CO [Compound A8, 2-[1-[2-[4-[3-[1-(5-chloropyrimidin-2-yl)-4-piperidyl]propoxy]-2-fluoro-phenyl]acetyl]azetidin-3-yl]-N-[2,3-dihydroxy-2-(hydroxymethyl)propyl]acetamide]	100 to 1000

Results, then the compound that gave them:

EC50 [nM]	Structure (SMILES)
≤ 100	O=C(Cc1ccc(OCCCC2CCN(c3ncc(Cl)cn3)CC2)cc1F)N1CC(CNC[C@H](O)[C@@H](O)[C@H](O)CO)C1 [Compound A61, 2-[4-[3-[1-(5-chloropyrimidin-2-yl)-4-piperidyl]propoxy]-2-fluoro-phenyl]-1-[3-[[[(2S,3R,4R)-2,3,4,5-tetrahydroxypentyl]amino]methyl]azetidin-1-yl]ethanone]
≤ 100	O=C(NCCCS(=O)(=O)O)C1CN(C(=O)Cc2ccc(OCCCC3CCN(c4ncc(Cl)cn4)CC3)cc2F)C1 [Compound A64, 3-[[1-[2-[4-[3-[1-(5-chloropyrimidin-2-yl)-4-piperidyl]propoxy]-2-fluoro-phenyl]acetyl]azetidine-3-carbonyl]amino]propane-1-sulfonic acid]
100 to 1000	O=C(NCCS(=O)(=O)O)C1CN(C(=O)Cc2ccc(OCCCC3CCN(c4ncc(Cl)cn4)CC3)cc2F)C1 [Compound A63, 2-[[1-[2-[4-[3-[1-(5-chloropyrimidin-2-yl)-4-piperidyl]propoxy]-2-fluoro-phenyl]acetyl]azetidine-3-carbonyl]amino]ethanesulfonic acid]
≤ 100	CCCc1cnc(N2CCC(CCCOc3cc(F)c(CC(=O)N4CC(CNC(CO)(CO)CO)C4)c(F)c3)CC2)nc1 [Compound A46, 2-(2,6-difluoro-4-(3-(1-(5-propylpyrimidin-2-yl)piperidin-4-yl)propoxy)phenyl)-1-(3-(((1,3-dihydroxy-2-(hydroxymethyl)propan-2-yl)amino)methyl)azetidin-1-yl)ethan-1-one]
100 to 1000	O=C(CC1CN(C(=O)Cc2ccc(OCCCC3CCN(c4ncc(Cl)cn4)CC3)cc2F)C1)NCCS(=O)(=O)O [Compound A68, 2-[[2-[1-[2-[4-[3-[1-(5-chloropyrimidin-2-yl)-4-piperidyl]propoxy]-2-fluoro-phenyl]acetyl]azetidin-3-yl]acetyl]amino]ethanesulfonic acid]
100 to 1000	CCOc1cnc(N2CCC(CCCOc3ccc(CC(=O)N4CC(CNC[C@H](O)[C@@H](O)[C@H](O)[C@H](O)CO)C4)c(F)c3)CC2)nc1 (racemic) [Compound A50, 2-[4-[3-[1-(5-ethoxypyrimidin-2-yl)-4-piperidyl]propoxy]-2-fluoro-phenyl]-1-[3-[[[rac-(2S,3R,4R,5R)-2,3,4,5,6-pentahydroxyhexyl]amino]methyl]azetidin-1-yl]ethanone]
≤ 100	O=C(CC1(O)CN(C(=O)Cc2ccc(OCCCC3CCN(c4ncc(Cl)cn4)CC3)cc2F)C1)NCC(CO)(CO)CO [Compound A71, 2-[1-[2-[4-[3-[1-(5-chloropyrimidin-2-yl)-4-piperidyl]propoxy]-2-fluoro-phenyl]acetyl]-3-hydroxy-azetidin-3-yl]-N-[3-hydroxy-2,2-bis(hydroxymethyl)propyl]acetamide]
100 to 1000	COC(=O)c1cnc(N2CCC(CCCOc3ccc(CC(=O)N4CC(CNC[C@H](O)[C@@H](O)[C@H](O)[C@H](O)CO)C4)c(F)c3)CC2)nc1 [Compound A54, methyl 2-[4-[3-[3-fluoro-4-[2-oxo-2-[3-[[[(2S,3R,4R,5R)-2,3,4,5,6-pentahydroxyhexyl]amino]methyl]azetidin-1-yl]ethyl]phenoxy]propyl]-1-piperidyl]pyrimidine-5-carboxylate]
≤ 100	O=C(Cc1ccc(OCCCC2CCN(c3ncc(Cl)cn3)CC2)cc1F)N1CC(CNC[C@H](O)[C@H](O)[C@H](O)CO)C1 [Compound A60, 2-[4-[3-[1-(5-chloropyrimidin-2-yl)-4-piperidyl]propoxy]-2-fluoro-phenyl]-1-[3-[[[(2S,3S,4R)-2,3,4,5-tetrahydroxypentyl]amino]methyl]azetidin-1-yl]ethanone]
≤ 100	CCCc1cnc(N2CCC(CCCOc3cc(F)c(CC(=O)N4CC(CNCC(O)(CO)CO)C4)c(F)c3)CC2)nc1 [Compound A45, 2-(2,6-difluoro-4-(3-(1-(5-propylpyrimidin-2-yl)piperidin-4-yl)propoxy)phenyl)-1-(3-(((2,3-dihydroxy-2-(hydroxymethyl)propyl)amino)methyl)azetidin-1-yl)ethan-1-one]
≤ 100	CCCc1cnc(N2CCC(CCCOc3cc(F)c(CC(=O)N4CC(CNC[C@H](O)[C@@H](O)[C@H](O)[C@H](O)CO)C4)c(F)c3)CC2)nc1 [Compound A48, 2-(2,6-difluoro-4-(3-(1-(5-propylpyrimidin-2-yl)piperidin-4-yl)propoxy)phenyl)-1-(3-((((2S,3R,4R,5R)-2,3,4,5,6-pentahydroxyhexyl)amino)methyl)azetidin-1-yl)ethan-1-one]
